Test results reported in paper PMC8752738, “A propolis-derived small molecule ameliorates metabolic syndrome in obese mice by targeting the CREB/CRTC2 transcriptional complex” (Nature Communications, 2022).
Values joined by “and” are separate entries in the source; they are usually repeats but may differ in a detail not shown here. Equal values may be shown once.

Key:
[1] = molecular target: T1, HIS-CREB protein (Homo sapiens, UniProt P16220); assay: Isothermal titration calorimetry; type: binding; settings: HIS-CREB titrated into APC solution, one-site model; read-out: equilibrium dissociation constant (KD) between APC and CREB
T1 construct: made in house
Protocol: Isothermal titration calorimetry was performed using a MicroCal iTC200 calorimeter (Freiburg, Germany). The purified HIS-CREB protein and APC were diluted in buffer (PBS with 500 mM NaCl and 10% glycine, pH 8.0). APC solution was titrated by injection of HIS-CREB. The originally released heat from molecules binding was recorded and analyzed by Origin9 software (Origin Lab) supplied with the instrument.

[2] = Pharmacokinetic studies; type: in vivo, mouse; settings: ICR mice; for half-life: ICR
Protocol: Male ICR mice (18–20 g, n = 3 in each group) were randomly assigned to treatment groups. After 12-h of fasting, baseline blood was collected into a tube containing ethylenediaminetetraacetic acid (EDTA). Animals were then treated orally with compound A57 or APC (p.o.: 20 mg/kg, in DMSO/0.5% HPMC 5/95, v/v) and intravenous injected the selected compounds (i.v.: 2 mg/kg, in DMSO/EtOH/PEG300/NaCl 5/5/40/50, v/v/v/v). Subsequently, blood samples per mouse were collected at 0.25, 0.5, 1, 2, 4, 8, 24 h for p.o.-treated groups and 0.05, 0.25, 0.75, 2, 4, 6, 8, 24 h for i.v.-treated groups. All samples were centrifuged at 12,000 rpm for 3 min, and the plasma was harvested. Aliquots of plasma samples were stored at −80 °C until analysis. The selected compounds' serum concentrations were determined by liquid chromatography/tandem mass spectrometry (LC–MS–MS). Pharmacokinetic parameters were determined from the selected compounds' serum concentrations by noncompartmental methods using WinNonLin professional version 4.1 (Pharsight Corp., Mountain View, CA).

[3] = male, mouse, plasma, iv, i.v. 2 mg/kg
[4] = male, mouse, plasma, po, p.o. 20 mg/kg

T1 sequence (P16220 whole entry): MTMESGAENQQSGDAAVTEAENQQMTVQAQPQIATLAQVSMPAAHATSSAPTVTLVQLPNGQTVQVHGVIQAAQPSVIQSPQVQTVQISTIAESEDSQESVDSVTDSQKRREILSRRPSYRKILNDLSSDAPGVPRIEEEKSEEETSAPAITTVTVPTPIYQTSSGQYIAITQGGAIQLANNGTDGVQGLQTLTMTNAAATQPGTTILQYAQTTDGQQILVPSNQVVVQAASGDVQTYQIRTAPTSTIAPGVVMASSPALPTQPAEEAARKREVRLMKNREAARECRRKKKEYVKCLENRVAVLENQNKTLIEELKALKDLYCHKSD

For `CC(C)=CCc1cc(C=CC(=O)O)cc(CC=C(C)C)c1O` [APC, 3,5-diprenyl-4-hydroxycinnamic acid], the Kd [1] was ~3.2 µM and 3.2 µM, the Fpo ([2]; p.o. 20 mg/kg vs i.v. 2 mg/kg) was 14.4% and the T1/2 ([2]; p.o. 20 mg/kg, 20 mg/kg) was 3.29 h. For the same compound, the half-life ([2]; male, mouse, plasma, iv, 2 mg/kg, i.v. 2 mg/kg) was 5.89 h, the half-life ([2]; male, mouse, plasma, po, 20 mg/kg, p.o. 20 mg/kg) was 2.11 h and the AUC(0-t) [2, 3] was 428 ng·h/mL. The MRT [2, 3] was 2.46 h, the clearance [2, 3] was 78 mL/min/kg and the AUC(0-t) [2, 4] was 616 ng·h/mL. It also gave a Cmax [2, 4] of 510 ng/mL, an MRT [2, 4] of 4.33 h and a Tmax [2, 4] of 0.25 h.
